In patent publication US12077503B2, “Substituted cyclic amides and their use as herbicides” (FMC CORPORATION, priority 2015, dated 2024):

Key:
Type in all cases: in vivo
[1] = test system: ducksalad (Heteranthera limosa); assay: Test B flooded paddy test; conditions: Flood, 0 to 100 scale where 0 is no effect and 100 is complete control, 13 to 15 d
Method in brief: (§1)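 Compound goes directly into floodwater once pots are flooded 3 cm above soil, targeting plants at two leaves; the water depth is then held for the test duration. Plants sit 13–15 d in a greenhouse and are rated visually, 100 denoting complete control.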

[2] = test system: barnyardgrass (Echinochloa crus-galli); assay: Test B flooded paddy test; conditions: Flood, 0 to 100 scale where 0 is no effect and 100 is complete control, 13 to 15 d
Method in brief: as §1

rice (Oryra sativa) = assay: Test B flooded paddy test; conditions: Flood, 0 to 100 scale where 0 is no effect and 100 is complete control, 13 to 15 d
Method in brief: as §1

[3] = test system: sedge, umbrella (small-flower umbrella sedge, Cyperus difformis); assay: Test B flooded paddy test; conditions: Flood, 0 to 100 scale where 0 is no effect and 100 is complete control, 13 to 15 d
Method in brief: as §1

[4] = test system: Galium (catchweed bedstraw, Galium aparine); assay: Test A postemergence; conditions: postemergence, 0 to 100 scale (0 no effect, 100 complete control)
Method in brief: (§2)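 Ratings of 0 (no effect) to 100 (complete control) come from visual comparison with untreated controls roughly 10 d after treatment. Test chemicals, formulated in a non-phytotoxic solvent mixture with surfactant, were applied either as a preemergence directed soil spray on seeded soil or postemergence to one- to two-leaf plants 2 to 10 cm tall.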

[5] = test system: ryegrass, Italian (Italian ryegrass, Lolium multiflorum); assay: Test A postemergence; conditions: postemergence, 0 to 100 scale (0 no effect, 100 complete control)
Method in brief: as §2

[6] = test system: barnyardgrass (Echinochloa crus-galli); assay: Test A postemergence; conditions: postemergence, 0 to 100 scale (0 no effect, 100 complete control)
Method in brief: as §2

Kochia (Kochia scoparia) [7] = assay: Test A postemergence; conditions: postemergence, 0 to 100 scale (0 no effect, 100 complete control)
Method in brief: as §2

[8] = test system: giant foxtail (Setaria faberii); assay: Test A postemergence; conditions: postemergence, 0 to 100 scale (0 no effect, 100 complete control)
Method in brief: as §2

[9] = test system: wheat (Triticum aestivum); assay: Test A postemergence; conditions: postemergence, 0 to 100 scale (0 no effect, 100 complete control)
Method in brief: as §2

[10] = test system: blackgrass (Alopecurus myosuroides); assay: Test A postemergence; conditions: postemergence, 0 to 100 scale (0 no effect, 100 complete control)
Method in brief: as §2

corn (Zea mays) = assay: Test A postemergence; conditions: postemergence, 0 to 100 scale (0 no effect, 100 complete control)
Method in brief: as §2

[11] = test system: ragweed (common ragweed, Ambrosia elatior); assay: Test A postemergence; conditions: postemergence, 0 to 100 scale (0 no effect, 100 complete control)
Method in brief: as §2

[12] = test system: pigweed (Amaranthus retroflexus); assay: Test A postemergence; conditions: postemergence, 0 to 100 scale (0 no effect, 100 complete control)
Method in brief: as §2

[13] = test system: ryegrass, Italian (Italian ryegrass, Lolium multiflorum); assay: Test A preemergence
Method in brief: as §2

[14] = test system: barnyardgrass (Echinochloa crus-galli); assay: Test A preemergence
Method in brief: as §2

Kochia (Kochia scoparia) [15] = assay: Test A preemergence
Method in brief: as §2

[16] = test system: giant foxtail (Setaria faberii); assay: Test A preemergence
Method in brief: as §2

[17] = test system: ragweed (common ragweed, Ambrosia elatior); assay: Test A preemergence
Method in brief: as §2

[18] = test system: pigweed (Amaranthus retroflexus); assay: Test A preemergence
[19] = 125 g ai/ha, visual rating after approx. 10 d
[20] = 500 g ai/ha, visual injury, approx. 10 d
[21] = 125 g ai/ha, Preemergence, visual injury after approximately 10 d, 0 to 100 scale where 0 is no effect and 100 is complete control
[22] = 500 g ai/ha, preemergence, 0 to 100 scale, 0 = no effect, 100 = complete control
[23] = 125 g ai/ha, visual injury after approximately 10 d
[24] = 125 g ai/ha, preemergence, visual rating after approx. 10 d, 0 to 100 scale where 0 is no effect and 100 is complete control

Structure (SMILES) | Plant response rating, Ducksalad ([1]; 500 g ai/ha) | Plant response rating, Barnyardgrass ([2]; 500 g ai/ha) | Plant response rating, Rice (rice (Oryra sativa); 500 g ai/ha) | Plant response rating, Sedge, Umbrella ([3]; 500 g ai/ha) | Plant response rating, Galium [4, 20] | Plant response rating, Ryegrass, Italian [5, 20] | Plant response rating, Barnyardgrass [6, 20] | Plant response rating, Kochia (Kochia (Kochia scoparia) [7]; [20]) | Plant response rating, Foxtail, Giant [8, 20] | Plant response rating, Wheat [9, 20] | Plant response rating, Blackgrass [10, 20] | Plant response rating, Corn (corn (Zea mays); [20]) | Plant response rating, Ragweed [11, 20] | Plant response rating, Pigweed [12, 20] | Plant response rating, Ryegrass, Italian [13, 22] | Plant response rating, Barnyardgrass [14, 22] | Plant response rating, Kochia (Kochia (Kochia scoparia) [15]; [22]) | Plant response rating, Foxtail, Giant [16, 22] | Plant response rating, Ragweed [17, 22] | Plant response rating, Pigweed [18, 22] | also measured
O=C1NCC(c2cccc(C(F)(F)F)c2)C1C(=O)Nc1ccc(F)cc1Cl (racemic) [Compound 676] | 85 | 80 | 15 | 0 | 40 | 20 | 80 | 0 | 80 | 20 | 40 | 50 | 0 | 0 | 20 | 90 | 0 | 90 | 0 | 0 | Plant response rating, Galium [4, 19]: 0; Plant response rating, Ryegrass, Italian [5, 19]: 0; Plant response rating, Barnyardgrass [6, 19]: 50; Plant response rating, Kochia (Kochia (Kochia scoparia) [7]; [19]): 0; Plant response rating, Foxtail, Giant [8, 19]: 20; Plant response rating, Wheat [9, 19]: 0; Plant response rating, Blackgrass [10, 19]: 20; Plant response rating, Corn (corn (Zea mays); [19]): 0; Plant response rating, Ragweed [11, 19]: 0; Plant response rating, Pigweed [12, 19]: 0; Plant response rating, Ryegrass, Italian [13, 21]: 0; Plant response rating, Barnyardgrass [14, 21]: 70; Plant response rating, Kochia (Kochia (Kochia scoparia) [15]; [21]): 0; Plant response rating, Foxtail, Giant [16, 21]: 80; Plant response rating, Ragweed [17, 21]: 0; Plant response rating, Pigweed [18, 21]: 0
O=C1NCC(c2cccc(Br)c2)C1C(=O)Nc1ccc(F)cc1F (racemic) [Compound 687] | – | – | – | – | 20 | 40 | 90 | 30 | 90 | 60 | 40 | 70 | 30 | 20 | 20 | 90 | 40 | 90 | 0 | 30 | Plant response rating, Ducksalad ([1]; 250 g ai/ha): 80; Plant response rating, Barnyardgrass ([2]; 250 g ai/ha): 35; Plant response rating, Rice (rice (Oryra sativa); 250 g ai/ha): 0; Plant response rating, Sedge, Umbrella ([3]; 250 g ai/ha): 0; Plant response rating, Galium [4, 23]: 0; Plant response rating, Ryegrass, Italian [5, 23]: 20; Plant response rating, Barnyardgrass [6, 19]: 90; Plant response rating, Kochia (Kochia (Kochia scoparia) [7]; [23]): 0; Plant response rating, Foxtail, Giant [8, 23]: 80; Plant response rating, Wheat [9, 23]: 0; Plant response rating, Blackgrass [10, 19]: 30; Plant response rating, Corn (corn (Zea mays); [23]): 0; Plant response rating, Ragweed [11, 23]: 30; Plant response rating, Pigweed [12, 23]: 0; Plant response rating, Ryegrass, Italian [13, 24]: 0; Plant response rating, Barnyardgrass [14, 21]: 90; Plant response rating, Kochia (Kochia (Kochia scoparia) [15]; [21]): 0; Plant response rating, Foxtail, Giant [16, 21]: 90; Plant response rating, Ragweed [17, 24]: 0; Plant response rating, Pigweed [18, 24]: 0
COC(=O)c1ccccc1NC(=O)C1C(=O)NCC1c1cccc(C(F)(F)F)c1 (racemic) [Compound 705] | 0 | 0 | 0 | 0 | 0 | 0 | 0 | 0 | 0 | 0 | 0 | 0 | 0 | 0 | 0 | 0 | 0 | 0 | 0 | 0 | Plant response rating, Galium [4, 23]: 0; Plant response rating, Ryegrass, Italian [5, 23]: 0; Plant response rating, Barnyardgrass [6, 23]: 0; Plant response rating, Kochia (Kochia (Kochia scoparia) [7]; [23]): 0; Plant response rating, Foxtail, Giant [8, 23]: 0; Plant response rating, Wheat [9, 23]: 0; Plant response rating, Blackgrass [10, 23]: 0; Plant response rating, Corn (corn (Zea mays); [23]): 0; Plant response rating, Ragweed [11, 23]: 0; Plant response rating, Pigweed [12, 23]: 0; Plant response rating, Ryegrass, Italian [13, 24]: 0; Plant response rating, Barnyardgrass [14, 24]: 0; Plant response rating, Kochia (Kochia (Kochia scoparia) [15]; [24]): 0; Plant response rating, Foxtail, Giant [16, 24]: 0; Plant response rating, Ragweed [17, 24]: 0; Plant response rating, Pigweed [18, 24]: 0
